Test results taken from US6660910B1, “Selection marker” (Syngenta Mogen B.V., priority 1997, dated 2003).

Key:
[1] = tested on: stem segments of Solanum tuberosum cv. Kardal; experiment: Transformation of potato stem segments with selection on cyanamide or kanamycin; format: cell-based; settings: for No. of rooting shoots: rooting medium 50 mg/l cyanamide
Procedure: Described below is the method used for transformation of stem segments of Solanum tuberosum cv. Kardal using Agrobacterium tumefaciens. Nodal explants from in vitro grown potato plants were used 3 to 8 weeks after transfer. The plants were grown on Multiplication Medium (MUM) under a 16 h light period (1700 lux) at 24° C. and a 8 h dark period at 21° C. (The various media can be found in Table 2). Stem segments of approximately 5 mm were cut on sterile filter paper soaked with Washing Medium (WAM) and collected in a flask containing Washing Medium. For approximately 300 explants the Washing Medium was replaced by Pre cultivation Medium (PRM). The flasks were cultured at 80 rpm at the same culture conditions as described above for approximately 24 h. All binary vectors used in this study contained the nptII gene as a plant selectable marker and the nptIII as bacterial selectable marker. Plasmid pMOG410 additionally harbored a chimeric gus gene containing an intron (Vancanneyt et al. Mol. Gen. Genet., 220, 245-250, 1990). Plasmid pMOG1156 additionally harbored the gus gene and the chimeric cah gene encoding cyanamide hydratase. Plasmid pMOG874 additionally harbored the cah gene. Plasmids were maintained in E.coli and A. tumefaciens under kanamycin selection.
The Agrobacterium strain used in this study harbored a rifampicin selection marker in a C58 chromosomal background. The construction of the helper strain EHA105 is described by Hood et al. (1993), Transg. Res. 2, 208-218.
Agrobacteria were grown overnight in LB medium with antibiotics (rifampicin 20 mg/l, kanamycin 100 mg/l). The overnight culture was diluted to OD600=0.1 and grown to OD600=0.3 in LB without antibiotics in approximately 2 h time. Bacterial suspensions were centrifuged at 1600×g for 15 minutes at room temperature. Bacteria were resuspended in Washing Medium and used for cocultivation experiments. The Pre cultivation Medium was removed from the flasks and replaced by the Agrobacterium suspension. The flasks were incubated for 20 minutes after which the explants were rinsed twice with Washing Medium. The explants were dried on sterile filter paper and incubated for 48 h on plates containing Cocultivation Medium (COM). Then, the explants were transferred to Post cultivation Medium (POM) and incubated for 72 h. The explants were then transferred to Shoot inducing Medium (SIM) containing several concentrations cyanamide or kanamycin. After two weeks the explants were subcultured on the same medium and approximately three weeks later the explants were placed on Shoot elongation Medium (SEM) containing cyanamide or kanamycin as mentioned above. When shoots were large enough to cut they were transferred to Root inducing Medium (RIM). Shoots that were able to root were then transferred to Root inducing Medium containing 50 mg/l cyanamide or 30 mg/l kanamycin. Simultaneously the transgenic nature of the shoots was determined by testing leaflets of the rooted shoots for expression of the gus gene using a histochemical GUS assay. It appeared that for pMOG1156 rooting of transgenic shoots on medium containing cyanamide was completely correlated with expression of the gus gene.

[2] = tested on: root segments of Arabidopsis thaliana cv. C24; experiment: Arabidopsis root transformation with selection on cyanamide or kanamycin; format: cell-based; settings: for % Shoots rooting / Nr. of plants (shoots developed into plants and able to root) / Percentage of GUS expressing plants (% of plants staining blue): pMOG 1156
Procedure: Described below is the method used for transformation of root segments of Arabidopsis thaliana cv. C24 using Agrobacterium tumefaciens. The binary vectors for this transformation method are identical to those described above.
Six mg of Arabidopsis seeds were germinated in a flask containing liquid Germination Medium (GM) under 16 h light period (1700 lux) at 24° C. and a 8 h dark period at 21° C. at 80 rpm. (The contents of various media can be found in Table 4). Roots of 9 days old seedlings were isolated in a sterile petridish and collected in a drop of Germination Medium (GM). Roots were cut in segments of approximately 3-5 mm and approximately 100 explants were spread evenly on a nylon membrane (O 8 cm) which was placed on plates containing Callus Inducing Medium (CIM). The plates were incubated 3 days under the same conditions as described above.
The Agrobacterium strain used in this study harbored a rifampicin selection marker in a C 58 chromosomal background. The construction of the helper strain MOG101 is described by Hood et al. (1993).
Agrobacteria were grown overnight in LB medium with antibiotics (rifampicin 20 mg/l, kanamycin 100 mg/l). The overnight culture was diluted 1:10 in LB without antibiotics and grown for approximately 3 hours. Bacterial suspensions were centrifuged at 1600×g for 15 minutes at room temperature. Bacteria were resuspended in GM and adjusted to OD600=0.1 and used for cocultivation.
The membrane containing approximately 100 explants was incubated for 2 minutes with the Agrobacterium suspension and dried on sterile filter paper to remove excess of bacteria. The membrane with explants are cultured for 48 h on CIM plates. After rinsing the membrane and explants with liquid GM these were incubated on Shoot Induction Medium (SIM) plates containing several concentrations of cyanamide or kanamycin. After 5 days the membrane with the explants was transferred to the same medium (SIM) for subculture. The second subculture was after 2 weeks. Approximately four weeks after cocultivation 60 shoots per cyanamide concentration were excised and placed on plates with Shoot Elongation Medium (SEM) containing 30 mg/l cyanamide. Shoots which were able to root are tested on their transgenic character by testing leaflets and flowers for expression of the gus gene using a histochemical GUS assay.
Three experiments were performed. Shoots obtained from Exp. 98-8 and 98-11 were transferred to rooting medium (SEM) containing 30 mg/litre cyanamide. Shoots obtained from Exp. 98-13 were transferred to rooting medium containing the same concentration as the selection medium (SIM), for results see Table 4a. The shoots obtained from the kanamycin selection (50 mg/litre) were transferred to rooting medium containing 25 mg/litre Kanamycin.

[3] = pMOG410 (gus-nptII), Cyanamide 20 mg/l during regeneration, 62 inoculated explants
[4] = pMOG410 (gus-nptII), Cyanamide 30 mg/l during regeneration, 62 inoculated explants
[5] = pMOG410 (gus-nptII), Cyanamide 40 mg/l during regeneration, 62 inoculated explants
[6] = pMOG874 (cah-nptII), Cyanamide 20 mg/l during regeneration, 58 inoculated explants
[7] = pMOG874 (cah-nptII), Cyanamide 30 mg/l during regeneration, 58 inoculated explants
[8] = pMOG874 (cah-nptII), Cyanamide 40 mg/l during regeneration, 58 inoculated explants
[9] = pMOG1156 (cah-gus-nptII), Cyanamide 20 mg/l during regeneration, 48 inoculated explants
[10] = pMOG1156 (cah-gus-nptII), Cyanamide 30 mg/l during regeneration, 48 inoculated explants
[11] = pMOG1156 (cah-gus-nptII), Cyanamide 40 mg/l during regeneration, 48 inoculated explants
[12] = Experiment 98-8, selection cyanamide 20 mg/litre, rooting medium 30 mg/litre cyanamide
[13] = Experiment 98-8, selection cyanamide 30 mg/litre, rooting medium 30 mg/litre cyanamide
[14] = Experiment 98-8, selection cyanamide 40 mg/litre, rooting medium 30 mg/litre cyanamide
[15] = Experiment 98-8, selection cyanamide 60 mg/litre, rooting medium 30 mg/litre cyanamide
[16] = Experiment 98-8, selection cyanamide 80 mg/litre, rooting medium 30 mg/litre cyanamide
[17] = Experiment 98-11, selection cyanamide 20 mg/litre, rooting medium 30 mg/litre cyanamide
[18] = Experiment 98-11, selection cyanamide 30 mg/litre, rooting medium 30 mg/litre cyanamide
[19] = Experiment 98-11, selection cyanamide 40 mg/litre, rooting medium 30 mg/litre cyanamide
[20] = Experiment 98-11, selection cyanamide 50 mg/litre, rooting medium 30 mg/litre cyanamide
[21] = Experiment 98-11, selection cyanamide 80 mg/litre, rooting medium 30 mg/litre cyanamide
[22] = Experiment 98-13, selection cyanamide 20 mg/litre, rooting medium same concentration as selection medium
[23] = Experiment 98-13, selection cyanamide 30 mg/litre, rooting medium same concentration as selection medium
[24] = Experiment 98-13, selection cyanamide 50 mg/litre, rooting medium same concentration as selection medium
[25] = Experiment 98-13, selection cyanamide 60 mg/litre, rooting medium same concentration as selection medium
[26] = Experiment 98-13, selection cyanamide 80 mg/litre, rooting medium same concentration as selection medium

**Q.** Which results are given for `N#CN` [Cyanamide]?
**A.** No. of excised shoots [1, 3]: 48; No. of gus + shoots [1, 3]: 0; No. of rooting shoots [1, 3]: 0; No. of excised shoots [1, 4]: 10; No. of gus + shoots [1, 4]: 0; No. of rooting shoots [1, 4]: 0; No. of excised shoots [1, 5]: 0; No. of gus + shoots [1, 5]: 0; No. of rooting shoots [1, 5]: 0; No. of excised shoots [1, 6]: 81; No. of rooting shoots [1, 6]: 2; No. of excised shoots [1, 7]: 40; No. of rooting shoots [1, 7]: 8; No. of excised shoots [1, 8]: 10; No. of rooting shoots [1, 8]: 1; No. of excised shoots [1, 9]: 56; No. of gus + shoots [1, 9]: 6; No. of rooting shoots [1, 9]: 6; No. of excised shoots [1, 10]: 50; No. of gus + shoots [1, 10]: 12; No. of rooting shoots [1, 10]: 12; No. of excised shoots [1, 11]: 15; No. of gus + shoots [1, 11]: 2; No. of rooting shoots [1, 11]: 2; Speed of shoot regeneration compared with kanamycin ([2]; PMOG 1156, lower cyanamide concentrations): regeneration of shoots was faster than with kanamycin; Regeneration of root explants ([2]; explants transformed with pMOG 410 (without the cah gene), 20 mg/litre cyanamide): already enough to prevent regeneration; Viability of root explants ([2]; explants transformed with pMOG 410, 50 mg/litre cyanamide and higher): not viable and turned completely brown; Callus development of root explants ([2]; explants transformed with pMOG 410, 20 till 40 mg/litre cyanamide): some callus development was observed; Regeneration of root explants ([2]; explants transformed with the cah gene (PMOG 1156), all cyanamide concentrations, even 80 mg/litre): able to regenerate at all cyanamide concentrations; % Shoots rooting [2, 12]: 0%; Nr. of plants (shoots developed into plants and able to root) [2, 12]: 0; % Shoots rooting [2, 13]: 6.3%; Nr. of plants (shoots developed into plants and able to root) [2, 13]: 4; % Shoots rooting [2, 14]: 8.2%; Nr. of plants (shoots developed into plants and able to root) [2, 14]: 5; % Shoots rooting [2, 15]: 8.2%; Nr. of plants (shoots developed into plants and able to root) [2, 15]: 5; % Shoots rooting [2, 16]: 13.8%; Nr. of plants (shoots developed into plants and able to root) [2, 16]: 9; % Shoots rooting [2, 17]: 1.7%; Nr. of plants (shoots developed into plants and able to root) [2, 17]: 1; % Shoots rooting [2, 18]: 3.2%; Nr. of plants (shoots developed into plants and able to root) [2, 18]: 2; % Shoots rooting [2, 19]: 4.5%; Nr. of plants (shoots developed into plants and able to root) [2, 19]: 3; % Shoots rooting [2, 20]: 8.1%; Nr. of plants (shoots developed into plants and able to root) [2, 20]: 5; % Shoots rooting [2, 21]: 15.6%; Nr. of plants (shoots developed into plants and able to root) [2, 21]: 10; % Shoots rooting [2, 22]: 4.8%; Nr. of plants (shoots developed into plants and able to root) [2, 22]: 3; % Shoots rooting [2, 23]: 14.5%; Nr. of plants (shoots developed into plants and able to root) [2, 23]: 9; Nr. of plants (shoots developed into plants and able to root) ([2]; Experiment 98-13, selection cyanamide 40 mg/litre, rooting medium same concentration as selection medium): 1; % Shoots rooting [2, 24]: 0%; Nr. of plants (shoots developed into plants and able to root) [2, 24]: 0; % Shoots rooting [2, 25]: 6.O; Nr. of plants (shoots developed into plants and able to root) [2, 25]: 4; % Shoots rooting [2, 26]: 11.4%; Nr. of plants (shoots developed into plants and able to root) [2, 26]: 8; Percentage of GUS expressing plants (% of plants staining blue) ([2]; treatment cyanamide 20 mg/litre, C30 in rooting medium): 0^1%; Percentage of GUS expressing plants (% of plants staining blue) ([2]; treatment cyanamide 20 mg/litre, rooting medium same conc. as treatment): 0%; Percentage of GUS expressing plants (% of plants staining blue) ([2]; treatment cyanamide 30 mg/litre, C30 in rooting medium): 75-100%; Percentage of GUS expressing plants (% of plants staining blue) ([2]; treatment cyanamide 30 mg/litre, rooting medium same conc. as treatment): 78%; Percentage of GUS expressing plants (% of plants staining blue) ([2]; treatment cyanamide 40 mg/litre, C30 in rooting medium): 40-100%; Percentage of GUS expressing plants (% of plants staining blue) ([2]; treatment cyanamide 40 mg/litre, rooting medium same conc. as treatment): 100%; Percentage of GUS expressing plants (% of plants staining blue) ([2]; treatment cyanamide 50 mg/litre, C30 in rooting medium): 80%; Percentage of GUS expressing plants (% of plants staining blue) ([2]; treatment cyanamide 60 mg/litre, C30 in rooting medium): 80%; Percentage of GUS expressing plants (% of plants staining blue) ([2]; treatment cyanamide 60 mg/litre, rooting medium same conc. as treatment): 100%; Percentage of GUS expressing plants (% of plants staining blue) ([2]; treatment cyanamide 80 mg/litre, C30 in rooting medium): 67-90%; Percentage of GUS expressing plants (% of plants staining blue) ([2]; treatment cyanamide 80 mg/litre, rooting medium same conc. as treatment): 100%
